Assay [1] concerns T-cell. Nature of the assay: IL-2 secretion from T-cells co-stimulated with anti-CD3 and anti-CD28 antibody (Biological Example 2). The following applies: Homo sapiens, T-cell, fold change over baseline, primary human total T-cells, read-out: IL-2 secretion Anti-CD3/Anti-CD28 stimulation; for fold induction at 0.3 µM: 0.3 μM Cbl-b inhibitor; for fold induction at 1 µM: 1 μM Cbl-b inhibitor; for fold induction at 4 µM: 4 μM Cbl-b inhibitor. It counts as cell-based, human. In short, it runs like this:
(§1)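 T-cells were stimulated with anti-CD3 antibody alone or with anti-CD28 antibody, in the presence or absence of Cbl-b inhibitor. IL-2 secretion or CD25 surface staining was measured, and values expressed as fold over the uninhibited baseline […].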

Assay [2] has as its system T-cell. The experiment in a line: CD25 cell surface staining on T-cells co-stimulated with anti-CD3 and anti-CD28 antibody (Biological Example 2). The following applies: Homo sapiens, T-cell, fold change over baseline, primary human total T-cells, read-out: CD25 staining Anti-CD3/Anti-CD28 stimulation; for fold induction at 0.3 µM: 0.3 μM Cbl-b inhibitor; for fold induction at 1 µM: 1 μM Cbl-b inhibitor; for fold induction at 4 µM: 4 μM Cbl-b inhibitor. The format is cell-based, human. In short, it runs like this:
as §1

For the next assay, the target named is Cbl-b (Homo sapiens, UniProt Q13191). The experiment in a line: Cbl-b activity assay (Cbl-b inhibition assay), TR-FRET of Cbl-b interaction with UbcH5B-Ub. It counts as biochemical. In short, it runs like this: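 UbcH5B (C85K) conjugated to N-terminally Bodipy-Fluorescein-labeled ubiquitin served as the fluorescent partner. After compound preincubation, Src kinase (60 nM) with 1 mM ATP and 5 mM MgCl2 (final) was added for 1.5 h, followed by a further 1 h incubation. Some values were obtained with 50 mM NaCl and 30 nM Src.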
Cbl-b, sequence (Q13191 36-427): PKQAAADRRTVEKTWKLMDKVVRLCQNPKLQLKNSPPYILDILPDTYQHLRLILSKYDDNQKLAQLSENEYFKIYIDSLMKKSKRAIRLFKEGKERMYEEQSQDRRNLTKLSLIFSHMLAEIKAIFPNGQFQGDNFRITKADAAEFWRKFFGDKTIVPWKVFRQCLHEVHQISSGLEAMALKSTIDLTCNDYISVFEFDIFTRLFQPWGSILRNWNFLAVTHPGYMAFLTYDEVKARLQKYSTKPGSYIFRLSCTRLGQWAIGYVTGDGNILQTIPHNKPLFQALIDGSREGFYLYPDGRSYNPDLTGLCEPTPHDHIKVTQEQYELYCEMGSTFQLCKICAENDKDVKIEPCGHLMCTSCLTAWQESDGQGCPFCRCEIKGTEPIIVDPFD

The mark [3] stands for this setting: assay buffer with 100 mM NaCl, 60 nM Src kinase, read-out: Cbl-b activity IC50.

Read-outs that look alike come from different tables or passages of the source.

The term IC50 denotes the midpoint of a concentration-inhibition curve.

As for `C[C@H](Sc1nncn1C)c1cccc(NC(=O)c2cc(C(F)(F)F)cc(C3CC3)n2)c1` [Compound 69, (S)-6-cyclopropyl-N-(3-(1-((4-methyl-4H-1,2,4-triazol-3-yl)thio)ethyl)phenyl)-4-(trifluoromethyl)picolinamide], in the assay on T-cell [1], the fold induction at 0.3 µM is less than 1, the fold induction at 1 µM was less than 1 and the fold induction at 4 µM was in the range of 1.01 to 2.5. In addition, in the assay with T-cell [2], the fold induction at 0.3 µM fell in the range of 1.01 to 1.3, the fold induction at 1 µM was 1.01 to 1.3 and the fold induction at 4 µM fell in the range of 1.31 to 1.5. In addition, the concentration for half-maximal inhibition (IC50) at Cbl-b (setting [3]) was in the range of 0.301 to 1 µM.

Take `Cc1ncc(C(=O)Nc2cccc([C@H](C)Sc3nncn3C)c2)nc1C1CC1` [Compound 70, (S)-6-cyclopropyl-5-methyl-N-(3-(1-((4-methyl-4H-1,2,4-triazol-3-yl)thio)ethyl)phenyl)pyrazine-2-carboxamide]: in the assay on T-cell [1], the fold induction at 0.3 µM was less than 1, the fold induction at 1 µM is 1.01 to 2.5 and the fold induction at 4 µM is 2.51 to 5. Also, in the assay with T-cell [2], the fold induction at 0.3 µM lay in the range of 1.31 to 1.5, the fold induction at 1 µM is 1.31 to 1.5 and the fold induction at 4 µM lay in the range of 1.51 to 1.75. Moreover, on Cbl-b (setting [3]), the IC50 was 0.1 to 0.3 µM.

Regarding `COc1cc(C(=O)Nc2cccc([C@H](C)Sc3nncn3C)c2)nc(C(F)(F)F)c1` [Compound 71, (S)-4-methoxy-N-(3-(1-((4-methyl-4H-1,2,4-triazol-3-yl)thio)ethyl)phenyl)-6-(trifluoromethyl)picolinamide], in the assay with T-cell [1], the fold induction at 0.3 µM is 2.51 to 5, the fold induction at 1 µM lay within 2.51 to 5 and the fold induction at 4 µM fell in the range of 5 to 7.5. In addition, in the assay with T-cell [2], the fold induction at 0.3 µM fell in the range of 1.01 to 1.3, the fold induction at 1 µM was in the range of 1.51 to 1.75 and the fold induction at 4 µM is greater than 1.76. Further, the 50% inhibitory concentration (IC50) on Cbl-b (setting [3]) fell in the range of 0.1 to 0.3 µM.

With `C[C@H](Sc1nncn1C)c1cccc(NC(=O)c2ccnc(C(F)(F)F)n2)c1` [Compound 75, N-[3-[(1S)-1-[(4-methyl-1,2,4-triazol-3-yl)sulfanyl]ethyl]phenyl]-2-(trifluoromethyl)pyrimidine-4-carboxamide], in the assay on T-cell [1], the fold induction at 0.3 µM lay within 1.01 to 2.5, the fold induction at 1 µM is 1.01 to 2.5 and the fold induction at 4 µM is 1.01 to 2.5. Besides, in the assay with T-cell [2], the fold induction at 0.3 µM was in the range of 1.01 to 1.3, the fold induction at 1 µM was 1.01 to 1.3 and the fold induction at 4 µM fell in the range of 1.01 to 1.3. Further, the IC50 on Cbl-b (setting [3]) is 0.301 to 1 µM.

In the case of `C[C@H](Sc1nncn1C)c1cccc(NC(=O)c2cncc(C(F)(F)F)n2)c1` [Compound 77, N-[3-[(1S)-1-[(4-methyl-1,2,4-triazol-3-yl)sulfanyl]ethyl]phenyl]-6-(trifluoromethyl)pyrazine-2-carboxamide], in the assay with T-cell [1], the fold induction at 0.3 µM is less than 1, the fold induction at 1 µM fell in the range of 1.01 to 2.5 and the fold induction at 4 µM was in the range of 1.01 to 2.5. For the same compound, in the assay with T-cell [2], the fold induction at 0.3 µM is less than 1, the fold induction at 1 µM is 1.01 to 1.3 and the fold induction at 4 µM fell in the range of 1.01 to 1.3. Further, the 50% inhibitory concentration (IC50) on Cbl-b (setting [3]) lay in the range of 0.301 to 1 µM.

For the compound `C[C@H](Sc1nncn1C)c1cccc(NC(=O)c2cc3c(Cl)cccc3[nH]2)c1` [Compound 78, 4-chloro-A-[3-[(LS)-1-[(4-methyl-1,2,4-triazol-3-yl)sulfanyl]ethyl]phenyl]-1H-indole-2-carboxamide], in the assay with T-cell [1], the fold induction at 0.3 µM was 1.01 to 2.5, the fold induction at 1 µM is 1.01 to 2.5 and the fold induction at 4 µM lay in the range of 2.51 to 5. Moreover, in the assay with T-cell [2], the fold induction at 0.3 µM is less than 1, the fold induction at 1 µM lay in the range of 1.01 to 1.3 and the fold induction at 4 µM was in the range of 1.01 to 1.3. Also, the IC50 on Cbl-b (setting [3]) lay in the range of 0.1 to 0.3 µM.

As for `C[C@H](Sc1nncn1C)c1cccc(NC(=O)c2cccc(S(C)(=O)=O)n2)c1` [Compound 80, (S)-N-(3-(1-((4-methyl-4H-1,2,4-triazol-3-yl)thio)ethyl)phenyl)-6-(methylsulfonyl)picolinamide], in the assay on T-cell [1], the fold induction at 0.3 µM was less than 1, the fold induction at 1 µM lay within 1.01 to 2.5 and the fold induction at 4 µM fell in the range of 1.01 to 2.5. Moreover, in the assay on T-cell [2], the fold induction at 0.3 µM fell in the range of 1.01 to 1.3, the fold induction at 1 µM is 1.01 to 1.3 and the fold induction at 4 µM was in the range of 1.01 to 1.3. At Cbl-b (setting [3]), the IC50 was 1 to 3 µM.

As to `C[C@H](Sc1nncn1C)c1cccc(NC(=O)c2cccc(C(C)(F)F)n2)c1` [Compound 81, (S)-6-(1,1-difluoroethyl)-N-(3-(1-((4-methyl-4H-1,2,4-triazol-3-yl)thio)ethyl)phenyl)picolinamide], in the assay with T-cell [1], the fold induction at 0.3 µM was less than 1, the fold induction at 1 µM is less than 1 and the fold induction at 4 µM was in the range of 2.51 to 5. In the assay on T-cell [2], the fold induction at 0.3 µM was in the range of 1.01 to 1.3, the fold induction at 1 µM lay in the range of 1.51 to 1.75 and the fold induction at 4 µM is greater than 1.76. Moreover, at Cbl-b (setting [3]), the 50% inhibitory concentration (IC50) was 0.1 to 0.3 µM.

Consider `C[C@H](Sc1nncn1C)c1cccc(NC(=O)c2cc(C(C)(C)O)cc(C(F)(F)F)n2)c1` [Compound 85, 4-(1-hydroxy-1-methyl-ethyl)-N-[3-[(1S)-1-[(4-methyl-1,2,4-triazol-3-yl)sulfanyl]ethyl]phenyl]-6-(trifluoromethyl)pyridine-2-carboxamide], for which, in the assay with T-cell [1], the fold induction at 0.3 µM is less than 1, the fold induction at 1 µM is less than 1 and the fold induction at 4 µM lay within 1.01 to 2.5. Moreover, in the assay with T-cell [2], the fold induction at 0.3 µM was 1.01 to 1.3, the fold induction at 1 µM was 1.01 to 1.3 and the fold induction at 4 µM fell in the range of 1.01 to 1.3. For the same compound, at Cbl-b (setting [3]), the half-maximal inhibitory concentration (IC50) lay in the range of 0.1 to 0.3 µM.

For the compound `C[C@H](Sc1nncn1C)c1ccc(F)c(NC(=O)c2cccc(C(F)(F)F)n2)c1` [Compound 95a, (S)-N-(2-fluoro-5-(1-((4-methyl-4H-1,2,4-triazol-3-yl)thio)ethyl)phenyl)-6-(trifluoromethyl)picolinamide], in the assay with T-cell [1], the fold induction at 0.3 µM was in the range of 1.01 to 2.5, the fold induction at 1 µM fell in the range of 1.01 to 2.5 and the fold induction at 4 µM fell in the range of 2.51 to 5. Moreover, in the assay with T-cell [2], the fold induction at 0.3 µM is less than 1, the fold induction at 1 µM lay in the range of 1.01 to 1.3 and the fold induction at 4 µM was in the range of 1.01 to 1.3. At Cbl-b (setting [3]), the IC50 was 0.301 to 1 µM.

With `C[C@H](Sc1nnc[nH]1)c1cccc(NC(=O)c2cc3ccccc3cn2)c1` [Compound 98, (S)-N-(3-(1-((4H-1,2,4-triazol-3-yl)thio)ethyl)phenyl)isoquinoline-3-carboxamide], in the assay with T-cell [1], the fold induction at 0.3 µM fell in the range of 1.01 to 2.5, the fold induction at 1 µM was 1.01 to 2.5 and the fold induction at 4 µM is 1.01 to 2.5. In the assay with T-cell [2], the fold induction at 0.3 µM was less than 1, the fold induction at 1 µM is less than 1 and the fold induction at 4 µM is less than 1. Besides, the IC50 at Cbl-b (* assay buffer containing 50 mM NaCl instead of 100 mM NaCl and 30 nM Src kinase instead of 60 nM, read-out: Cbl-b activity IC50 (μM)*) is 1 to 3 µM. In addition, at Cbl-b (setting [3]), the half-maximal inhibitory concentration (IC50) fell in the range of 0.301 to 1 µM.

In the case of `Cc1cc(C(=O)Nc2cc([C@H](C)Sc3nncn3C)ccn2)nc(C(F)(F)F)c1` [Compound 103, (S)-4-methyl-N-(4-(1-((4-methyl-4H-1,2,4-triazol-3-yl)thio)ethyl)pyridin-2-yl)-6-(trifluoromethyl)picolinamide], in the assay on T-cell [1], the fold induction at 0.3 µM lay within 1.01 to 2.5, the fold induction at 1 µM lay within 1.01 to 2.5 and the fold induction at 4 µM fell in the range of 1.01 to 2.5. Also, in the assay with T-cell [2], the fold induction at 0.3 µM was less than 1, the fold induction at 1 µM is less than 1 and the fold induction at 4 µM fell in the range of 1.01 to 1.3. Besides, the IC50 at Cbl-b (setting [3]) was 0.301 to 1 µM.

Values taken from patent US20220324835A1 (Nurix Therapeutics, Inc., priority 2018, published 2022).
